# Test results taken from ChEMBL document CHEMBL4043166, “Triazole tethered isatin-coumarin based molecular hybrids as novel antitubulin agents: Design, synthesis, biological investigation and docking studies” (Bioorg Med Chem Lett, 2017).
# The source made the active and inactive calls. The rule behind the calls is not given here.
# Assays:
# [1] = test system: COLO 205; assay: Cytotoxicity against human COLO205 cells assessed as growth inhibition at 50 uM after 48 hrs by SRB assay relative to control; type: functional; conditions: COLO 205, 48 h, read-out: GI
# [2] = test system: HCT-116; assay: Cytotoxicity against human HCT116 cells assessed as growth inhibition at 50 uM after 48 hrs by SRB assay relative to control; type: functional; conditions: HCT-116, 48 h, read-out: GI
# [3] = test system: THP-1; assay: Cytotoxicity against human THP1 cells assessed as growth inhibition at 50 uM after 48 hrs by SRB assay relative to control; type: functional; conditions: THP-1, 48 h, read-out: GI
# [4] = test system: COLO 205; assay: Cytotoxicity against human COLO205 cells assessed as cell growth inhibition after 48 hrs by SRB assay; type: functional, cell-based; conditions: COLO 205, 48 h
# [5] = Inhibition of tubulin (unknown origin) polymerization; set-up: species or system Homo sapiens
# [6] = test system: THP-1; assay: Cytotoxicity against human THP1 cells assessed as cell growth inhibition after 48 hrs by SRB assay; type: functional, cell-based; conditions: THP-1, 48 h
# [7] = test system: HCT-116; assay: Cytotoxicity against human HCT116 cells assessed as cell growth inhibition after 48 hrs by SRB assay; type: functional, cell-based; conditions: HCT-116, 48 h
# [8] = test system: PC-3; assay: Cytotoxicity against human PC3 cells assessed as growth inhibition at 50 uM after 48 hrs by SRB assay relative to control; type: functional; conditions: PC-3, 48 h, read-out: GI
# [9] = species on record: Homo sapiens; assay: Inhibition of tubulin polymerization in human THP1 cells assessed as disrupted microtubule formation at 5 uM after 48 hrs by confocal microscopic analysis; type: cell-based
# [10] = species on record: Homo sapiens; assay: Inhibition of tubulin polymerization in human THP1 cells assessed as disrupted microtubule formation at 1 uM after 48 hrs by confocal microscopic analysis; type: cell-based
IC50 [5] [µM],SMILES,inhibition of growth at 50 µM [1] [%],inhibition of growth at 50 µM [2] [%],inhibition of growth at 50 µM [3] [%],IC50 [4] [µM],IC50 [6] [µM],IC50 [7] [µM],inhibition of growth at 50 µM [8] [%],inhibition [9],inhibition [10]
–,O=C1C(=O)N(CCCCCn2cc(COc3cc(=O)oc4ccccc34)nn2)c2ccc([N+](=O)[O-])cc21,23,29,37,–,–,–,–,–,–
3.55,O=C1C(=O)N(CCn2cc(COc3cc(=O)oc4ccccc34)nn2)c2ccc(F)cc21,76,80,92,6.67,1.99,5.41,26,–,–
–,O=C1C(=O)N(CCCn2cc(COc3cc(=O)oc4ccccc34)nn2)c2ccc([N+](=O)[O-])cc21,52,60,60,–,–,–,12,–,–
6.32,O=C1C(=O)N(CCCn2cc(COc3cc(=O)oc4ccccc34)nn2)c2ccccc21,75,79,93,5.71,5.03,5.18,25,–,–
–,O=C1C(=O)N(CCCCCn2cc(COc3cc(=O)oc4ccccc34)nn2)c2ccc(Br)cc21,39,43,52,–,–,–,–,–,–
–,O=C1C(=O)N(CCCn2cc(COc3cc(=O)oc4ccccc34)nn2)c2ccc(F)cc21,69,75,86,8.88,5.76,7.26,20,–,–
–,O=C1C(=O)N(CCCCCn2cc(COc3cc(=O)oc4ccccc34)nn2)c2ccc(Cl)cc21,48,52,59,–,–,–,–,–,–
1.06,O=C1C(=O)N(CCn2cc(COc3cc(=O)oc4ccccc34)nn2)c2ccccc21,80,87,98,3.45,0.73,3.04,28,Active,–
–,O=C1C(=O)N(CCCCn2cc(COc3cc(=O)oc4ccccc34)nn2)c2ccccc21,68,72,85,7.67,5.12,8.05,19,–,–
–,COc1ccc2c(c1)C(=O)C(=O)N2CCn1cc(COc2cc(=O)oc3ccccc23)nn1,53,65,68,–,–,–,14,–,–
–,O=C1C(=O)N(CCCCCn2cc(COc3cc(=O)oc4ccccc34)nn2)c2ccccc21,62,65,69,–,–,–,9,–,–
–,O=C1C(=O)N(CCn2cc(COc3cc(=O)oc4ccccc34)nn2)c2ccc([N+](=O)[O-])cc21,59,68,71,13,8.57,9.54,15,–,–
–,O=C1C(=O)N(CCCCn2cc(COc3cc(=O)oc4ccccc34)nn2)c2ccc([N+](=O)[O-])cc21,45,53,55,–,–,–,8,–,–
–,O=C1C(=O)N(CCn2cc(COc3cc(=O)oc4ccccc34)nn2)c2ccc(Cl)cc21,76,70,87,8.87,5.47,5.77,22,–,–
–,COc1ccc2c(c1)C(=O)C(=O)N2CCCn1cc(COc2cc(=O)oc3ccccc23)nn1,48,52,56,–,–,–,9,–,–
–,O=C1C(=O)N(CCCCCn2cc(COc3cc(=O)oc4ccccc34)nn2)c2ccc(F)cc21,56,59,63,–,–,–,–,–,–
–,O=C1C(=O)N(CCCn2cc(COc3cc(=O)oc4ccccc34)nn2)c2ccc(I)cc21,56,65,67,–,–,–,14,–,–
–,O=C1C(=O)N(CCCCn2cc(COc3cc(=O)oc4ccccc34)nn2)c2ccc(F)cc21,64,67,77,9.11,7.1,10.4,17,–,–
–,O=C1C(=O)N(CCCCn2cc(COc3cc(=O)oc4ccccc34)nn2)c2ccc(Cl)cc21,60,62,71,13.1,7.56,12.8,14,–,–
–,O=C1C(=O)N(CCCCCn2cc(COc3cc(=O)oc4ccccc34)nn2)c2ccc(I)cc21,30,36,45,–,–,–,–,–,–
–,O=C1C(=O)N(CCCCn2cc(COc3cc(=O)oc4ccccc34)nn2)c2ccc(Br)cc21,56,59,63,–,–,–,13,–,–
–,O=C1C(=O)N(CCCCn2cc(COc3cc(=O)oc4ccccc34)nn2)c2ccc(I)cc21,50,57,59,–,–,–,10,–,–
–,O=C1C(=O)N(CCn2cc(COc3cc(=O)oc4ccccc34)nn2)c2ccc(Br)cc21,65,72,80,10.5,6.43,8.09,21,–,–
–,O=C1C(=O)N(CCCn2cc(COc3cc(=O)oc4ccccc34)nn2)c2ccc(Br)cc21,61,66,72,13,7.14,11.5,14,–,–
–,COc1ccc2c(c1)C(=O)C(=O)N2CCCCn1cc(COc2cc(=O)oc3ccccc23)nn1,41,48,52,–,–,–,–,–,–
–,O=C1C(=O)N(CCn2cc(COc3cc(=O)oc4ccccc34)nn2)c2ccc(I)cc21,62,70,74,12,7.01,8.99,17,–,–
–,O=C1C(=O)N(CCCn2cc(COc3cc(=O)oc4ccccc34)nn2)c2ccc(Cl)cc21,67,68,78,10.7,6.99,9.66,18,–,–
–,COc1ccc2c(c1)C(=O)C(=O)N2CCCCCn1cc(COc2cc(=O)oc3ccccc23)nn1,19,25,30,–,–,–,–,–,–
–,CC(=O)O[C@H]1C(=O)[C@@]2(C)[C@H]([C@H](OC(=O)c3ccccc3)[C@]3(O)C[C@H](OC(=O)[C@H](O)[C@@H](NC(=O)c4ccccc4)c4ccccc4)C(C)=C1C3(C)C)[C@]1(OC(C)=O)CO[C@@H]1C[C@@H]2O,–,–,–,–,–,–,–,–,Active
